Test results published in PubChem BioAssay (NCI).
Several values for one entry are separate records, joined by “and”; a condition that tells them apart may be missing. Equal entries are not always repeated.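 Results reflect a 48-hour exposure of cells in 96-well plates to compound at five concentrations. Abbreviation: GI50, concentration required for 50% inhibition of growth. TGI denotes the concentration required for complete inhibition of growth.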

Tests used:
Experiment in all cases: NCI tumour cell line growth inhibition, 48 h
SF-295 CNS = tested on: SF-295 CNS
EKVX NSCLC = tested on: EKVX NSCLC
SK-OV-3 ovarian = tested on: SK-OV-3 ovarian
UO-31 renal = tested on: UO-31 renal
HCT-15 colon = tested on: HCT-15 colon
OVCAR-3 ovarian = tested on: OVCAR-3 ovarian
HT29 colon = tested on: HT29 colon
UACC-257 melanoma = tested on: UACC-257 melanoma
HOP-62 NSCLC = tested on: HOP-62 NSCLC
SF-539 CNS = tested on: SF-539 CNS

Row | Structure (SMILES) | GI50 (SF-295 CNS) | TGI (SF-295 CNS) | GI50 (EKVX NSCLC) [µM] | TGI (EKVX NSCLC) | GI50 (SK-OV-3 ovarian) [µM] | GI50 (UO-31 renal) | TGI (UO-31 renal) | GI50 (HCT-15 colon) | TGI (HCT-15 colon) | GI50 (OVCAR-3 ovarian) | TGI (OVCAR-3 ovarian) | GI50 (HT29 colon) | TGI (HT29 colon) | GI50 (UACC-257 melanoma) | TGI (UACC-257 melanoma) | GI50 (HOP-62 NSCLC) | TGI (HOP-62 NSCLC) | GI50 (SF-539 CNS) | TGI (SF-539 CNS) | TGI (SK-OV-3 ovarian) [µM]
1 | C=CC(=O)N1CCC(Oc2cc3c(Nc4ccc(Cl)c(Cl)c4F)ncnc3cc2OC)CC1 | 3.78 µM and 2.21 µM | 17.3 µM and > 10 µM | < 0.001 | 17.2 µM and > 10 µM | < 0.001 | 0.0493 µM and 0.0566 µM | 4.75 µM and 3.72 µM | 2.52 µM and 2.23 µM | 15.6 µM and > 10 µM | 2.63 µM and 1 µM | 16.5 µM and > 8.17 µM | 1.71 µM and 1.52 µM | 13.7 µM and > 9.34 µM | 11.5 µM and 6.67 µM | 31.7 µM and > 10 µM | 3.88 µM and 3.1 µM | 25.1 µM and > 10 µM | 1.57 µM and 1.78 µM | 10 µM and 8.4 µM | –
2 | O=C(O)CSCCc1ccccc1 | – | > 100 µM | – | > 100 µM | – | – | > 100 µM | – | > 100 µM | – | > 100 µM | – | > 100 µM | – | > 100 µM | – | > 100 µM | – | > 100 µM | > 100
3 | Nc1n[nH]c2cccc(C#Cc3cccc(NC(=O)c4cccc(C(F)(F)F)c4)c3)c12 | 2.68 µM | 10.5 µM | 6.2 | 19.8 µM | 3.19 | 2.29 µM | 9.45 µM | 2.92 µM | 13.6 µM | 5.07 µM | 17.3 µM | 2.98 µM | 12.8 µM | 4.3 µM | 15.8 µM | 3.41 µM | 13.9 µM | 1.19 µM | 3.47 µM | 10.2
4 | CC(C)(C)c1cc([N+](=O)[O-])cc([N+](=O)[O-])c1O | – | > 10 µM | – | > 10 µM | – | – | > 10 µM | – | > 10 µM | – | > 10 µM | – | > 10 µM | – | > 10 µM | – | > 10 µM | – | > 10 µM | > 10
5 | C[C@]12CCc3sc(Nc4ccc(OC(F)(F)F)cc4)nc3C1=CC[C@@H]1[C@@H]2CC[C@]2(C)C(=O)CC[C@@H]12 | 0.7 µM | 2.44 µM | 2.63 | 17.4 µM | 3.04 | 2.06 µM | 4.73 µM | 1.69 µM | 4.1 µM | 1.94 µM | 4.14 µM | 2.39 µM | 10.9 µM | 4.89 µM | 28.8 µM | 1.92 µM | 4.19 µM | 1.05 µM | 2.72 µM | 10
6 | COc1cccc2c1C(=N)c1c(O)c3c(c(O)c1C2=O)C[C@@](O)(C(C)=O)C[C@@H]3O[C@H]1C[C@H](N)[C@H](O)[C@H](C)O1 | 0.219 µM | 1.27 µM | 2.53 | 12.6 µM | 0.288 | 2.24 µM | 19.9 µM | 2.53 µM | 18.2 µM | 1.13 µM | 7.11 µM | 0.316 µM | 2.09 µM | 1.34 µM | 8.99 µM | 0.152 µM | 1.37 µM | 0.174 µM | 1.48 µM | 2.6
7 | Cc1nnc(-c2ccc(C)c(-c3ccc(C(=O)Nc4cccc(C#N)c4)cc3)c2)o1 | > 25 µM | > 25 µM | > 25 | > 25 µM | > 25 | > 25 µM | > 25 µM | > 25 µM | > 25 µM | > 25 µM | > 25 µM | > 25 µM | > 25 µM | > 25 µM | > 25 µM | > 25 µM | > 25 µM | > 25 µM | > 25 µM | > 25
8 | Cn1c(Cl)c(/C=C2/C(=O)Nc3ccccc32)c2ccccc21 | 0.223 µM | 2.21 µM | – | 7.52 µM | 0.732 | 3.39 µM | 44.7 µM | 0.16 µM | 11.9 µM | 0.204 µM | 1.26 µM | 0.144 µM | > 100 µM | 10.7 µM | 37.8 µM | 0.293 µM | 6.68 µM | 0.17 µM | 1.06 µM | 10.5
9 | COc1cc(C2c3cc4c(cc3OC(C)(N3CCCC3)C2C)OCO4)cc(OC)c1OC (stereo not drawn) | – | 0.661 µM | – | > 50.8 µM | – | – | 57 µM | – | 11.3 µM | – | 0.528 µM | – | 0.836 µM | – | > 100 µM | – | 66.8 µM | – | 0.716 µM | > 62.6
10 | CC/C=C\C[C@H]1CC=C2C(=O)C=C[C@@H]2CC=CCCCC(=O)O[C@@H](CCCCC)CC=C2C(=O)C=C[C@@H]2CC=CCCCC(=O)O[C@@H](CCCCC)CC=C2C(=O)C=C[C@@H]2CC=CCCCC(=O)O[C@@H](CCCCC)CC=C2C(=O)C=C[C@@H]2CC=CCCCC(=O)O1 | 2.02 µM | 6.32 µM | 2.41 | > 7.9 µM | 7.64 | 1.41 µM | 2.84 µM | 2.84 µM | > 7.9 µM | 1.66 µM | 4.01 µM | 2.86 µM | 6.93 µM | 2.95 µM | > 7.9 µM | 1.71 µM | 3.86 µM | 2.22 µM | > 7.9 µM | > 7.9
11 | CCN1CCCc2cc3c(C(F)(F)F)cc(=O)oc3cc21 | – | > 100 µM | – | > 100 µM | – | – | > 100 µM | – | > 100 µM | – | > 100 µM | – | > 100 µM | – | > 100 µM | – | > 100 µM | – | > 100 µM | > 100
